According to patent US20110213021A1, “COMPOSITIONS AND METHODS FOR TREATING NOS-ASSOCIATED DISEASES” (Indigene Pharmaceuticals, Inc., priority 2008, published 2011):

Key:
human HL-60 cells = test: superoxide O2- secretion from PMA-stimulated HL-60 cells (cytochrome C reduction); format: cell-based; conditions: 0.25 h, 30 nM PMA-stimulated HL-60 cells, 15 min at 37° C.
Description: In addition, the effect on superoxide O2 secretion was measured. This assay quantifies the secretion of superoxide O2^− from phorbol 12-mysirate 13-acetate (PMA)-stimulated human HL-60 cells, by the measurement of cytochrome C reduction. The test salt (as a 10-fold concentrated solution in H2O), reference compound or water (control) are pre-incubated for 15 min at 37° C. with HL-60 cells (5×10^5 cells) suspended in a buffer containing 137 mM NaCl, 2.68 mM KCl, 0.9 mM CaCl2, 0.5 mM MgCl2, 8.1 mM Na2HPO4, 1.47 mM KH2PO4 (pH 7.4 ) and 19 μM cytochrome C. The absorbance is then measured at λ=550 nm using a spectrophotometer to detect any compound interference with the photometric detection at this wavelength. Thereafter, the reaction is initiated by the addition of 30 nM PMA and the mixture is incubated for 15 min at 37° C. in the dark. For basal control measurements, the incubation medium also contains 275 U/ml superoxyde dismutase (SOD) to catalyze the destruction of superoxide O2^−. […] The absorbance is then measured at λ=550 nm and the activity is determined by subtracting signal measured in the presence of SOD from that measured in its absence. This assay may be performed using the standard inhibitory reference compound, diphenyleneiodonium, which may be tested in each experiment at several concentrations to obtain an inhibition curve from which its IC50 value is calculated. […]

rat liver microsomes = test: lipid peroxidation: ascorbic acid-induced production of malonaldehyde in liver microsomes; format: biochemical; conditions: 0.1 mM ascorbic acid, 20 min at 37° C.
Description: Furthermore, the effect on lipid peroxidation quantified by the measurement of ascorbic acid-induced production of malonaldehyde in rat liver microsomes. Specifically, homogenates of liver microsomes (150 μg) are pre-incubated for 5 min at 37° C. with the test salt (as a 10-fold concentrated solution in H2O), reference compound or water (control) in a buffer containing 300 mM NaCl, 0.1 mM FeCl3 and 8 mM NaH2PO4/Na2HPO4 (pH 7.4). Thereafter, the reaction is initiated by the addition of 0.1 mM ascorbic acid and the mixture is incubated for 20 min at 37° C. For basal control measurements, ascorbic acid is omitted from the incubation medium. These measurements are also used to detect any compound interference with the photometric detection at the selected wavelength. Following incubation, the reaction is stopped by the addition of 5 mM EDTA/NaOH. […] The amount of lipid peroxides present in the supernatant is quantified by measuring the absorbance at λ=532 nm using a spectrophotometer. This assay may be performed using the standard inhibitory reference compound N-propyl gallate, which may be tested in each experiment at several concentrations to obtain an inhibition curve from which its IC50 value is calculated. […]

inducible NOS = molecular target: T1, inducible NOS (Mus musculus, UniProt P29477); test: inducible NOS activity assay (formation of nitrite from arginine, Griess reagent); format: biochemical
T1 construct: using an enzyme isolated from LPS-+INFγ-treated mouse macrophages; endogenous in cells; host or cells: LPS + IFN-gamma-treated mouse macrophages (enzyme isolated from the cells)
Description: First, an inducible NOS activity assay was performed on the recrystallized salt of Example 2. This assay measures the formation of nitrite from arginine using an enzyme isolated from LPS-+INFγ-treated mouse macrophages. In this assay, the test salt (as a 10-fold concentrated solution in H2O), reference compound or water (control) are incubated for 180 min at 37° C. with the enzyme (0.5 U) in a buffer containing 40 mM Tris-HCl (pH 8.0), 0.5 mM NADPH, 4 μM FAD, 12 μM BH4, 3 mM DTT and 0.1 mM L-arginine. For basal control measurements, the enzyme is omitted from the incubation medium. Following incubation, Griess reagent containing 0.05% naphtylene diamine, 0.5% sulfanilamide and 2.5% orthophosphoric acid is added and the samples are incubated for 10 min at 22° C. The amount of nitrite produced is then quantified with a microplate reader (Spectrafluorplus, Tecan) by measuring the absorbance at λ=550 nm. The results are expressed as IC50 in M. This assay may be performed using the standard inhibitory reference compound, I400 W, which may be tested in each experiment at several concentrations to obtain an inhibition curve from which its IC50 value is calculated. Further information regarding this protocol may be found in Tayeh and Marletta (1989), Macrophage oxidation of L-arginine to nitric oxide, nitrite, and nitrate, J. Biol. Chem., 264: 19654.

IC50 (human HL-60 cells): 310 µM
IC50 (rat liver microsomes): 1800 µM
IC50 (inducible NOS; enzyme isolated from LPS-+INFγ-treated mouse macrophages, 180 min at 37° C., 0.1 mM L-arginine): 37 µM
nH, inducible NOS activity (inducible NOS; same inhibition curve as the IC50): 0.9
SMILES: CC(C)=NN=C(N)N
